In series [1] the test system is HAdV-19. The series is described as follows: MTT-based antiviral assay, HAdV-19-infected MT-2 cells. Type of series: cell-based, Human adenovirus type 19. The conditions noted are these: for EC50: Human mastadenovirus D, MT2, 120 h, HAdV-19, five days, MTT, mean ± 1 SD, read-out: EC50 (50% antiviral effective concentration). The protocol:
(§1) MT-2 cells and A549 cells were mixed with HAdV-19, 2× 10^5 cells/mL with 10^4 TCID50/mL and 1× 10^5 cells/mL with 3 × 10^3 TCID50/mL, respectively, in plate wells in the presence or absence of various concentrations of the compounds (MOI: 0.035 for MT-2 cells and 0.021 for A549). The plates were incubated for five days. At the end of the incubation period, CPE was determined using the MTT assay, as described previously.[11],[12] Thus, 25 µl of the MTT solution (7.5 mg/ml) in phosphate-buffered saline (Wako, Japan) was added to each well of the plate. Then, the plate was incubated at 37°C for 2 h. After incubation, 150 µl of medium was removed with care in order not to draw cells. To solubilize the formazan crystals and neutralize the viral infectivity, 100 μl of acidified isopropanol (4 ml concentrated HCl per 1 l of isopropanol) containing 10% (v/v) Triton X-100 was added to each well. Formazan crystals were completely solubilized by pipetting up and down, the absorbance at 560 nm of the wells was read by microplate reader (GloMax, Promega, Japan). […] The cytotoxicity of each compound was measured in parallel using the MTT assay. The 50% cytotoxicity concentration (CC50) was defined as the drug concentration that reduces cell viability by 50%.
(Formazan colour is commonly taken as a measure of viable cells.)

Series [2] concerns HAdV-19. The series is described as follows: MTT-based antiviral assay, HAdV-19-infected A549 cells. Type of series: cell-based, Human adenovirus type 19. The conditions noted are these: for EC50: Human mastadenovirus D, 120 h, HAdV-19, five days, MTT, mean ± 1 SD, read-out: EC50 (50% antiviral effective concentration). The method, then:
as §1

The nature of series [3]: MTT cytotoxicity assay, MT-2 cells. It counts as cell-based, human. The note with it: human, MTT, mean ± 1 SD, read-out: CC50 (50% cytotoxicity concentration). The protocol: (§2) MT-2 cells and A549 cells were mixed with HAdV-19, 2× 10^5 cells/mL with 10^4 TCID50/mL and 1× 10^5 cells/mL with 3 × 10^3 TCID50/mL, respectively, in plate wells in the presence or absence of various concentrations of the compounds (MOI: 0.035 for MT-2 cells and 0.021 for A549). The plates were incubated for five days. At the end of the incubation period, CPE was determined using the MTT assay, as described previously.[11],[12] Thus, 25 µl of the MTT solution (7.5 mg/ml) in phosphate-buffered saline (Wako, Japan) was added to each well of the plate. Then, the plate was incubated at 37°C for 2 h. After incubation, 150 µl of medium was removed with care in order not to draw cells. To solubilize the formazan crystals and neutralize the viral infectivity, 100 μl of acidified isopropanol (4 ml concentrated HCl per 1 l of isopropanol) containing 10% (v/v) Triton X-100 was added to each well. Formazan crystals were completely solubilized by pipetting up and down, the absorbance at 560 nm of the wells was read by microplate reader (GloMax, Promega, Japan). The 50% antiviral effective concentration (EC50) was defined as the drug concentration that protects 50% of virus-infected cells from virus-induced cell damage and/or death.[12] The cytotoxicity of each compound was measured in parallel using the MTT assay. The 50% cytotoxicity concentration (CC50) was defined as the drug concentration that reduces cell viability by 50%. Data shown represent mean EC50 and CC50values (±1 standard deviation) derived from the results of two to four independent experiments conducted in duplicate.

For the next series, the system named is MT-2 cells. The series is described as follows: MTT cytotoxicity assay, MT-2 cells. It counts as cell-based, human. The conditions noted are these: at a concentration of 100 µM. The method, then:
as §2

The nature of series [4]: MTT cytotoxicity assay, A549 cells. It counts as cell-based, human. The note with it: human, MTT, mean ± 1 SD, read-out: CC50 (50% cytotoxicity concentration). The protocol:
as §2

Another series relates to A549 cells. Description: MTT cytotoxicity assay, A549 cells. Type of series: cell-based, human. The conditions noted are these: at a concentration of 100 µM. The protocol: as §2

Consider `Nc1ccn(C[C@@H](CO)OCP(=O)(O)O)c(=O)n1` [CDV, (S)-1–(3-hydroxy-2-phosphonylmethoxypropyl)cytosine], for which the “SI (selectivity index, ratio of CC50 and EC50)” value with HAdV-19 [1] is greater than 1.6; in the series with HAdV-19 [2] it was greater than 24. The EC50 was 62 ± 26 µM in the series with HAdV-19 [1] and 4.2 ± 1.1 µM in the series with HAdV-19 [2]. In addition, the CC50 at 5 days in series [3] and in series [4] was greater than 100 µM in each case. Moreover, the tolerance by cells result in the series with MT-2 cells and with A549 cells was “tolerated” throughout.

With `Cc1cn([C@H]2C[C@H](F)[C@@H](CO)O2)c(=O)[nH]c1=O` [FdT, 3′-deoxy-3′-fluorothymidine], the EC50 with HAdV-19 [1] was found to be 1.8 ± 0.2 µM; in the series with HAdV-19 [2] it was 0.03 ± 0.01 µM. For the same compound, the CC50 at 5 days turned out to be 36 ± 5 µM in series [3] and 7.6 ± 4.2 µM in series [4].

On to `Nc1nc(O)c2ncn(COC(CO)CO)c2n1` [GCV, ganciclovir], for which the results for the “SI (selectivity index, ratio of CC50 and EC50)” value in the series with HAdV-19 [1] and with HAdV-19 [2] were greater than 1.7 and greater than 1.9, respectively. Further, the EC50 in the series with HAdV-19 [1] was determined as 60 ± 7 µM; in the series on HAdV-19 [2], 54 ± 27 µM. The CC50 at 5 days in series [3] and in series [4] was greater than 100 µM throughout. For the same compound, the tolerance by cells result in the series on MT-2 cells and with A549 cells was “tolerated” in each case.

For the compound `NC(=O)c1ncn([C@@H]2O[C@H](CO)[C@@H](O)[C@H]2O)n1` [RBV, ribavirin], the EC50 in the series on HAdV-19 [1] is greater than 18 µM; in the series on HAdV-19 [2], greater than 53 µM. Also, the “antiviral activity against HAdV-19 (in words)” value in the series on HAdV-19 [1] (MTT assay) is on record as “little antiviral activity”. Further, the values for the CC50 at 5 days in series [3] and in series [4] were 18 ± 1 µM and 53 ± 21 µM, respectively.

For `Nc1ccn([C@H]2CC[C@@H](CO)O2)c(=O)n1` [ddC, 2′,3′-dideoxycytidine], the entries for the “SI (selectivity index, ratio of CC50 and EC50)” value in the series on HAdV-19 [1] and in the series with HAdV-19 [2] were greater than 38 and greater than 286, respectively. Besides, the values for the EC50 in the series with HAdV-19 [1] and with HAdV-19 [2] were 2.6 ± 0.4 µM and 0.35 ± 0.04 µM, respectively. The CC50 at 5 days in series [3] and in series [4] was greater than 100 µM each time. Also, the tolerance by cells entry in the series with MT-2 cells and in the series with A549 cells was “tolerated” throughout.

Values taken from article PMC7218274 (Antiviral Chemistry & Chemotherapy, 2020).
